Reference: EP0197800A2, “5-Thiaprostaglandins E1 and process for producing same” (TEIJIN LIMITED, priority 1985, dated 1986)
Converted amounts (≈) assume the structure as drawn.

Tests used:
[1] = test system: ethanol ulcer; assay: inhibitory activity on ethanol ulcer; format: in vivo, SD-strain rats; settings: rat ethanol ulcer, oral administration of 4 ug/kg
Description: An ethanol ulcer test was carried out by the following procedure. SD-strain rats (body weight 200 to 220 g; 7 week old) were fasted for 24 hours, and a solution of the test compound in physiological saline buffered with phosphate buffer at pH 7.5 was orally administered. Thirty minutes after the administration, 75% ethanol was orally administered in a dose of 1 ml/kg. One hour later, the abdomen was incised to isolate the stomach. […] The total of these lengths was […] ulcer index. From this measurement, the inhibition of ulcer formatin by the test compound was calculated, to determine the IC50 value.

[2] = test system: indomethacin ulcer; assay: inhibitory activity on indomethacin ulcer; format: in vivo, Wister male rats; settings: rat indomethacin ulcer, oral administration of 40 µg/kg
Description: The inhibiting effect on ulcer formation induced by indomethacin was examined by using Wister male rats (7 weeks old, body weight 220 g) which were fasted for 24 hours, except for water, and then subjected to experiment.
The sample compound to be tested was dissolved in a phosphoric acid buffer (pH 7.4) containing 0.9% NaCl and the solution was orally administered to the rats. 30 minutes after the administration, indomethacin was orally administered to the rats at a dose of 20 mg/kg. 5 hours after the administratin of the indomethacin, the rats were killed and the ulcer formation in the stomach was examined by determining the length of the ulcer formation portion under a stereomicroscope. From this measurement, the inhibition of ulcer formation by the sampel compound was calculated to determine the IC50 values.

[3] = test system: blood pressure; assay: activity on blood pressure, intravenous injection under anesthesia; format: in vivo, male wister rats; settings: Rattus norvegicus, i.v., dosage which caused a 20% lowering of the mean blood pressure, anesthetized rats
Description: The actions of the 5-thiaprostaglandin of the invention on the blood pressure was examined by intravenous injection under anesthesia.
Urehtane (500 mg/kg) and a-chloralose (100 mg/kg) were intraperitoneally administered to male wister rats weighing about 250 g. The rats were anesthetized and fixed in place.
The test compound was dissolved in a small amount of ethanol and diluted with physiological saline to adjust the final ethanol concentration to not more than 5%. The solution was intravenously injected into the rats through a catheter inserted into the femoral vein.
The blood pressure of the rats was measured by a pressure transducer through a catheter inserted into the carotid artery of the rats.
The action of the test compound on the blood pressure was expressed as the dosage (ED20 , ug/kg) of the test compound which caused a 20% lowering of the mean blood pressure before administration of the compound.

[4] = test system: platelet aggregation; assay: in vitro inhibitory activity of platelet aggregation (ADP-induced, platelet-rich plasma); format: cell-based, Japanese domestic white male rabbits; settings: Oryctolagus cuniculus; rabbit PRP, 10 µM ADP; minimum concentration which inhibited more than 50% of platelet aggregation; read-out: Inhibition of Platelet in vitro IC50
Description: The in vitro platelet aggregation imhibiting activity of the compound of the invention was examined by using rabbits. Blood was withdrawn from the ear vein of Japanese domestic white male rabbits weighing 2.5 to 3.5 kg. A mixture of a 3.8% trisodium citrate solution and the blood in a ratio of 1:9 was centrifuged at a speed of 1000 rpm for 10 minutes. The upper layer was separated as platelet-rich plasma (PRP). The lower layer was further centrifuged at a speed of 2800 rpm for 10 minutes. The upper layer was separated as platelet- poor plasma (PPP). The number of plate lets was adjusted to 6 x 105/µℓ. to 7 x 105/µℓ. by diluting the PRP with PPP. 25 microliters of the test compound prepared as shown below was added with an amount of 25 to 250 microliters of PRP after the adjustment, and the mixture was pre-incubated at 37°C for 2 minutes, and then 10 µM (final) of ADP was added. Changes in transmission were recorded by using an aggregometer.
The drug was dissolved in ethanol to a concentration of 10 mg/ml, and seccussively diluted with phosphate buffer (pH 7.4) prior to use.
The rate of inhibition of platelet aggregation was determined from the following equation. [formula] • T0: the transmittance of the system containing the phosphate buffer, • T : the transmittance of the system to which the test drug was added. […]

[5] = test system: platelet aggregation; assay: extra vivo inhibitory activity of platelet aggregation after oral administration; format: in vivo, Hartley-strain guinea pigs; settings: guinea pigs, oral 0.3-3 mg/kg, blood drawn 1 hour after administration, N.E.: no-effect
Description: The extra vivo platelet aggregation inhibitory activity of the 5-thiaprostaglandin E1 derivatives of the invention were measured by using guinea pigs. A test drug prepared as a 10% ethanol solution of the compound of the invention in ethanol diluted with 10% ethanol-0.5% Tween 80 in saline were orally administered in a dose of 0.3-3 mg/kg, and as a control 10% ethanol-0.5% Tween 80 in saline was orally administered in a dose of 1 ml/kg to Hartley-strain guinea pigs having a body weight of 350 to 450 g which had been fasted for 17 hours. 1 hour after the administration of the compound, blood was drawn off by carbiac puncture using trisodium citrate so that the ratio of the blood to 3.8% trisodium citrate was 9:1. The blood was centrifuged at a speed of 700 rpm for 10 minutes. The upper layer was separated as platelet-rich plasma (PRP). The lower layer was further centrifuged at a speed of 2800 rpm for 10 minutes. The upper layer was separated as platelet poor plasma (PPP). A 250 microliter amount of the - resulting PRP was taken into an aggregometer cuvette and incubated at 37°C for 2 minutes. […] The aggregation curve was recorded for 5 minutes. The maximum degree of aggregation of platelets within this time period was read, and the rate of inhibition of platelet aggregation was calculated from the following equation. […]

**Q.** Which results are given for `CCCC[C@](C)(O)C/C=C/[C@H]1[C@H](O)CC(=O)[C@@H]1CCSCCCC(=O)OC` [Compound of example 6, (16S)-15-deoxy-16-hydroxy-16-methyl-5-thiaprostaglandin E1 methyl ester]?
**A.** prevention rate of ulcer generation [1]: about 50%; preventive rate of ulcer generation [2]: about 50%; ED20 [3]: 2.1 µg/kg; IC50 [4]: 60 µg/mL (≈ 150 µM); Inhibition of Platelet extra vivo ADP ([5]; ADP-induced aggregation): N.E.; Inhibition of Platelet extra vivo collagen ([5]; collagen-induced aggregation): N.E.
